From ChEMBL document CHEMBL5653628, “Selective JAK3 Inhibitors with a Covalent Reversible Binding Mode Targeting a New Induced Fit Binding Pocket” (Cell Chem Biol, 2016)

How the values were obtained:
[1] = biological target: Receptor tyrosine-protein kinase erbB-2 (Homo sapiens, UniProt P04626); assay: Inhibition of ERB-B2 (unknown origin)
[2] = biological target: Epidermal growth factor receptor (Homo sapiens, UniProt P00533); assay: Inhibition of EGFR (unknown origin)
[3] = biological target: Tyrosine-protein kinase TXK (Homo sapiens, UniProt P42681); assay: Inhibition of TXK (unknown origin)
[4] = biological target: Cytoplasmic tyrosine-protein kinase BMX (Homo sapiens, UniProt P51813); assay: Inhibition of BMX (unknown origin)
[5] = biological target: Tyrosine-protein kinase Tec (Homo sapiens, UniProt P42680); assay: Inhibition of TEC (unknown origin)
[6] = biological target: Tyrosine-protein kinase BTK (Homo sapiens, UniProt Q06187); assay: Inhibition of BTK (unknown origin) by trFRET binding assay
[7] = biological target: T1, Tyrosine-protein kinase JAK3 (Homo sapiens, UniProt P52333)
T1 sequence (P52333 whole entry): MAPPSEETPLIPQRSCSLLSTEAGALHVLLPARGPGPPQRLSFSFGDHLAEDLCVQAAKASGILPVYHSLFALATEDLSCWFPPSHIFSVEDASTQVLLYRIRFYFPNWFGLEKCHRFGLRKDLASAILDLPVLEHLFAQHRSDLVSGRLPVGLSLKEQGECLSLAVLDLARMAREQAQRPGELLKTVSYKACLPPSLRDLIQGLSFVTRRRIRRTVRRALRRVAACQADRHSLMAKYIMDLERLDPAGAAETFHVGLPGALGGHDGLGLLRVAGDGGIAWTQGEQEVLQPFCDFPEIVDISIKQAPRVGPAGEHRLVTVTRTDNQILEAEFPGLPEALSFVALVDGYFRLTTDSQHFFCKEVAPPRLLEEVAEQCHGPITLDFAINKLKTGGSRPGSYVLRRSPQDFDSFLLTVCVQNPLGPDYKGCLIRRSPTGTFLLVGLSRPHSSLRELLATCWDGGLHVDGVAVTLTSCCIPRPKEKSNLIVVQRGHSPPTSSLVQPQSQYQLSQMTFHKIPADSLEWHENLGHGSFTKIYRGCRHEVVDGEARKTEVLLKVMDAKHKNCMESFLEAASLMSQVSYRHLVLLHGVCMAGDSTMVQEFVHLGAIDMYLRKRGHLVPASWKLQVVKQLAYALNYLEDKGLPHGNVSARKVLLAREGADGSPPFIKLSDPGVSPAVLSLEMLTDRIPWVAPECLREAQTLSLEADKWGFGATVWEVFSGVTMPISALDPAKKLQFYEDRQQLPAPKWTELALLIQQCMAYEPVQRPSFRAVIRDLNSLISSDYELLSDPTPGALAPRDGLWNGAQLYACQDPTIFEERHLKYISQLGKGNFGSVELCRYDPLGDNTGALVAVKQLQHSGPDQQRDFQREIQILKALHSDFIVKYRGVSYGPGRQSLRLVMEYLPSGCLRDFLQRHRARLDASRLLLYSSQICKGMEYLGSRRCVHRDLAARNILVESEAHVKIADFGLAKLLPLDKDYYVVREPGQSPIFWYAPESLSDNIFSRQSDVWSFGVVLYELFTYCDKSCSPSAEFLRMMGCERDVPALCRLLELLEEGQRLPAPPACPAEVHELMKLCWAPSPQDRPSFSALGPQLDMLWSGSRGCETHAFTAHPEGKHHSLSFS
Description: Inhibition of JAK3 (unknown origin) in presence of ATP by radiometric assay

[8] = biological target: Proto-oncogene tyrosine-protein kinase Src (Homo sapiens, UniProt P12931); assay: Inhibition of SRC (unknown origin) by trFRET binding assay
[9] = biological target: T1, Tyrosine-protein kinase JAK3; assay: Inhibition of JAK3 (unknown origin) by trFRET binding assay
[10] = biological target: Serine/threonine-protein kinase 16 (Homo sapiens, UniProt O75716); assay: Inhibition of STK16 (unknown origin) by trFRET binding assay
[11] = biological target: Vascular endothelial growth factor receptor 1 (Homo sapiens, UniProt P17948); assay: Inhibition of FLT1 (unknown origin) by trFRET binding assay
[12] = biological target: Tyrosine-protein kinase Fyn (Homo sapiens, UniProt P06241); assay: Inhibition of FYN (unknown origin) by trFRET binding assay
[13] = biological target: Vascular endothelial growth factor receptor 2 (Homo sapiens, UniProt P35968); assay: Inhibition of KDR (unknown origin) by trFRET binding assay
Vascular endothelial growth factor receptor 2, sequence (P35968 whole entry): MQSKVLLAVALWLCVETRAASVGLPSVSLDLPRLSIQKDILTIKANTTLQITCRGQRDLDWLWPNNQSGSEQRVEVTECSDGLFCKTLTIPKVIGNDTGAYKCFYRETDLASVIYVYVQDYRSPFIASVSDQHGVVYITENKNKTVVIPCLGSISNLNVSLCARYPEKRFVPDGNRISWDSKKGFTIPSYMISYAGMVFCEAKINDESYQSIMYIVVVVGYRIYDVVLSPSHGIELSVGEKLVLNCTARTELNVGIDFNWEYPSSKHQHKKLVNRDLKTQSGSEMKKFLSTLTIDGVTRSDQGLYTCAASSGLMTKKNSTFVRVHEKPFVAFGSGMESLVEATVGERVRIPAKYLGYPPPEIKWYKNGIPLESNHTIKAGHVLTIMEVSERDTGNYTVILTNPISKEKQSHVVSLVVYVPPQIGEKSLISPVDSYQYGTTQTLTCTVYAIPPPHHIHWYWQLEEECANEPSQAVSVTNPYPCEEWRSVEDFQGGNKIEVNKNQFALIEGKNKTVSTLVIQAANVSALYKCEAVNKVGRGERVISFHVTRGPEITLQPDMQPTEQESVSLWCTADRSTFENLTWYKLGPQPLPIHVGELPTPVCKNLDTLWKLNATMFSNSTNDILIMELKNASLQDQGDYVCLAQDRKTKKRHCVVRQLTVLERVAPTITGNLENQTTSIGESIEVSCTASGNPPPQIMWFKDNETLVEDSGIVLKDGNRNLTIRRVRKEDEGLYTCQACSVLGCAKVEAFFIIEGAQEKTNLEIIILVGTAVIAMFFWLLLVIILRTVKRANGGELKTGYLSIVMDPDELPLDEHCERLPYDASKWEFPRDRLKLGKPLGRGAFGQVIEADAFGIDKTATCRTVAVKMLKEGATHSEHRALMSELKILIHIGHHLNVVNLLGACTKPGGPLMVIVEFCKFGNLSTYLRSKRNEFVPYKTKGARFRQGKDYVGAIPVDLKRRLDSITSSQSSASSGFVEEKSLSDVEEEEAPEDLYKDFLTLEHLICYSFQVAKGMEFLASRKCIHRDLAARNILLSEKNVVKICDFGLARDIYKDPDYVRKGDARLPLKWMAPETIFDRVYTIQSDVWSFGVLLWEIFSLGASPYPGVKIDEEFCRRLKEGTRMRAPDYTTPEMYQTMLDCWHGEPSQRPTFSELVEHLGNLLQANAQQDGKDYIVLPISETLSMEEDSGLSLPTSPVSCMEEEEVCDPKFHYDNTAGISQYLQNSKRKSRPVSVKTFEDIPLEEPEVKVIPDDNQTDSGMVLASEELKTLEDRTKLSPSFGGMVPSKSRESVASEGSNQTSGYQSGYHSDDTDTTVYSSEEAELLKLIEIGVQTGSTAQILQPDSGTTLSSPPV

Vascular endothelial growth factor receptor 1, sequence (P17948 whole entry): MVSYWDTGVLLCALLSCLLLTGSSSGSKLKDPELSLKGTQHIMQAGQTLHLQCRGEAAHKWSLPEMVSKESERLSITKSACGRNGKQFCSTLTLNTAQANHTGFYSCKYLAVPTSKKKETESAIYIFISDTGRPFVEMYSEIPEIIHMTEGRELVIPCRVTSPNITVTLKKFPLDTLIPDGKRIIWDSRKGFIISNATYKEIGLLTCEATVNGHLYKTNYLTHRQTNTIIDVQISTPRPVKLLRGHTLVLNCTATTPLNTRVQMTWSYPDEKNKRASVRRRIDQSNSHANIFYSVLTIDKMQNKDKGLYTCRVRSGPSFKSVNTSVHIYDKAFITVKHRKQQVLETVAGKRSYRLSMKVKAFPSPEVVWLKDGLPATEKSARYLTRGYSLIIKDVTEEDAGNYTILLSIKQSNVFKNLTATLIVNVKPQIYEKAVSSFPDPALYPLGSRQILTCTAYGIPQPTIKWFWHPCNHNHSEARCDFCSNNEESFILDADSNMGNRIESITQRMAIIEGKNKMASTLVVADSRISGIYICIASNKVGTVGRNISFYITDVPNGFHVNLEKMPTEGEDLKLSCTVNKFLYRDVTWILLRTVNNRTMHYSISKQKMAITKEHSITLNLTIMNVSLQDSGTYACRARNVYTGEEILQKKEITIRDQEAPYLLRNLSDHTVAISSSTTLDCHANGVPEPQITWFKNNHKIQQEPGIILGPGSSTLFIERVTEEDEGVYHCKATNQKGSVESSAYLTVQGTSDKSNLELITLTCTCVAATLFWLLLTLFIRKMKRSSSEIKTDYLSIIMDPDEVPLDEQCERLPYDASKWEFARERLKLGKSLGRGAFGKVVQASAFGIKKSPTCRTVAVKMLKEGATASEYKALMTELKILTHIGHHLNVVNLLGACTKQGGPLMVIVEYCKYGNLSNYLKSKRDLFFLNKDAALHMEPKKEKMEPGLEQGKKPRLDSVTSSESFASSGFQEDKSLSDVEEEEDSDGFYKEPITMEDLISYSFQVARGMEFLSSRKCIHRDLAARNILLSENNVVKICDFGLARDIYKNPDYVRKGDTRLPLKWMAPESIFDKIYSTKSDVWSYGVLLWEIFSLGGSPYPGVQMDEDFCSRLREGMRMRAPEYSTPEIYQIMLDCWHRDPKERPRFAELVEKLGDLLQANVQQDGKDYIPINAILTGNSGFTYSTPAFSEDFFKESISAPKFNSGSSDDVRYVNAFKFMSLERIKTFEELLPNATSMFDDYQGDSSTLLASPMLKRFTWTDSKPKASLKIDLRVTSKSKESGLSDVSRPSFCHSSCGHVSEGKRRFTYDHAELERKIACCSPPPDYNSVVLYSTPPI
Epidermal growth factor receptor, sequence (P00533 whole entry): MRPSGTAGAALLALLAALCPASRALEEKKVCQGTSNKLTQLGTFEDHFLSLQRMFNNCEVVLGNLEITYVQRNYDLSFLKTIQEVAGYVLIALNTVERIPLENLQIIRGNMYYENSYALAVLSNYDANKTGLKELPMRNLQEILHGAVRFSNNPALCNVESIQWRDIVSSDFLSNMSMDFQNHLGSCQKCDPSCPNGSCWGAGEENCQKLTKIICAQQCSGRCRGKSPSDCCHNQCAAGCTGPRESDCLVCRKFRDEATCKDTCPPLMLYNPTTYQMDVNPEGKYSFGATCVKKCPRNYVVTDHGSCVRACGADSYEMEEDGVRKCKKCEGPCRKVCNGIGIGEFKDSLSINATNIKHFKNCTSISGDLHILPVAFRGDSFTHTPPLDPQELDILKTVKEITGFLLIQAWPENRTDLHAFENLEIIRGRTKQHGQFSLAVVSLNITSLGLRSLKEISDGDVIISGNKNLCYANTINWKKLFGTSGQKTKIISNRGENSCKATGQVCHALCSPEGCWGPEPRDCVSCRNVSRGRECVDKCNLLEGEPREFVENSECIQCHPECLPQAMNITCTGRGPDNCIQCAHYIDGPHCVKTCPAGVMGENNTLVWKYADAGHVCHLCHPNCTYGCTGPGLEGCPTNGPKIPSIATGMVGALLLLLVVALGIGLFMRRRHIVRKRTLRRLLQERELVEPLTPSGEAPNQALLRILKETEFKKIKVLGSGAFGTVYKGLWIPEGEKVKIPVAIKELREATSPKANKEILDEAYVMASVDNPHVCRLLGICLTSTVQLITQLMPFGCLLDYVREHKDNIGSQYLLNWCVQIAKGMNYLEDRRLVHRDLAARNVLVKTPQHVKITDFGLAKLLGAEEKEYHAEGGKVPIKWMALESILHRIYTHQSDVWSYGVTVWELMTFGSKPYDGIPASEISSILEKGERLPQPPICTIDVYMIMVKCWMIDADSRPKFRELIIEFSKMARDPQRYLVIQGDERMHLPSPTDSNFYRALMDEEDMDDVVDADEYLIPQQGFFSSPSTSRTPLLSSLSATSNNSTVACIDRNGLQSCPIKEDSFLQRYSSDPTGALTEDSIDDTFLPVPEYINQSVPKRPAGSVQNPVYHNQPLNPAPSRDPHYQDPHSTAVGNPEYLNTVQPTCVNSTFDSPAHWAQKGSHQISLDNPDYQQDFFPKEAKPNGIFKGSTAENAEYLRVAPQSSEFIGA
Tyrosine-protein kinase Fyn, sequence (P06241 whole entry): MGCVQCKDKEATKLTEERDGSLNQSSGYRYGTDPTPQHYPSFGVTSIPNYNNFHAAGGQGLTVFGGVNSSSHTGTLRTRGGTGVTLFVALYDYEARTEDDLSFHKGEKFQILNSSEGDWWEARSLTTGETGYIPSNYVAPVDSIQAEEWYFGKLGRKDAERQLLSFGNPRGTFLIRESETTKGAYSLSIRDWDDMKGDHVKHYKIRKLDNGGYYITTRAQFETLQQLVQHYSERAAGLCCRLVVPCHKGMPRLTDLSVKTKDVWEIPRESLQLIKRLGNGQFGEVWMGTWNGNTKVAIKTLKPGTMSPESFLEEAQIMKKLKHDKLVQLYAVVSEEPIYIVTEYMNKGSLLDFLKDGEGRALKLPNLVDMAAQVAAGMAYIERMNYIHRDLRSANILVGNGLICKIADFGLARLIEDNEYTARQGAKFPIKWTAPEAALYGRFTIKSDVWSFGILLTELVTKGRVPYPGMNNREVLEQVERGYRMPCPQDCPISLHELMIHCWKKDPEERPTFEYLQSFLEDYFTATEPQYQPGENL
Tyrosine-protein kinase Tec, sequence (P42680 whole entry): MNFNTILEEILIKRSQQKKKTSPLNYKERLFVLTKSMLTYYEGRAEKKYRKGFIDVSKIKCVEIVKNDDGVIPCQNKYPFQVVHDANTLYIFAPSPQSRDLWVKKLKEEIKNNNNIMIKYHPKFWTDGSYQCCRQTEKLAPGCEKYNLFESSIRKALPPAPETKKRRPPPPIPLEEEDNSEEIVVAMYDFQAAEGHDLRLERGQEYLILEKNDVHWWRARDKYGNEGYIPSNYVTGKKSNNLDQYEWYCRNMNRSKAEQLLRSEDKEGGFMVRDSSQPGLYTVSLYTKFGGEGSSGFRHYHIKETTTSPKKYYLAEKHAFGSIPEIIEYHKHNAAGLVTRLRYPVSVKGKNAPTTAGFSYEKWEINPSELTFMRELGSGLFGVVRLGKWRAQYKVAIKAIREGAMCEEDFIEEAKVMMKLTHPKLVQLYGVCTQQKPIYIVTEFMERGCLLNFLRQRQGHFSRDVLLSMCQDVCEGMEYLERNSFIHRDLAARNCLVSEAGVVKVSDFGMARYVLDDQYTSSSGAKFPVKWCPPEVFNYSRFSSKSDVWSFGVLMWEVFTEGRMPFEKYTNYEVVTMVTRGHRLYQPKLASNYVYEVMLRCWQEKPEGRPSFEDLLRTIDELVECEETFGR

SMILES	IC50 [1] [µM]	IC50 [2] [µM]	IC50 [3] [µM]	IC50 [4] [µM]	IC50 [5] [µM]	IC50 [6] [µM]	IC50 [7] [µM]	IC50 [8] [µM]	IC50 [9] [µM]	IC50 [10] [µM]	IC50 [11] [µM]	IC50 [12] [µM]	IC50 [13] [µM]
N#C/C(=C\c1cccc(-c2cccc3[nH]ncc23)c1)C(N)=O	2.05	> 10	1.67	2.41	6.93	–	–	–	–	–	–	–	–
C=CC(=O)Nc1ccc2ncn(-c3cncc(Nc4ccccc4)n3)c2c1	–	–	–	–	–	0.64	0.02	0.98	0.3	1	0.55	0.66	0.55
